Test results reported in US20230140216A1, “COMBINATION THERAPY FOR TREATING MPS1” (GAIN THERAPEUTICS SA, priority 2020, published 2023).

Tests used:
[1] = target: T1, Recombinant human α-L-iduronidase protein (Homo sapiens, UniProt P35475); experiment: Denaturation prevention assay in neutral pH buffer; type: biochemical; settings: 500 µM reference compound, pH 7, 37° C.
T1 construct: Ala26-Pro653 with a C-terminal 10_His tag; 10xHis (C); host or cells: HEK293f (stated in b1366 for the UAB protein)
T1 sequence (P35475 26-653): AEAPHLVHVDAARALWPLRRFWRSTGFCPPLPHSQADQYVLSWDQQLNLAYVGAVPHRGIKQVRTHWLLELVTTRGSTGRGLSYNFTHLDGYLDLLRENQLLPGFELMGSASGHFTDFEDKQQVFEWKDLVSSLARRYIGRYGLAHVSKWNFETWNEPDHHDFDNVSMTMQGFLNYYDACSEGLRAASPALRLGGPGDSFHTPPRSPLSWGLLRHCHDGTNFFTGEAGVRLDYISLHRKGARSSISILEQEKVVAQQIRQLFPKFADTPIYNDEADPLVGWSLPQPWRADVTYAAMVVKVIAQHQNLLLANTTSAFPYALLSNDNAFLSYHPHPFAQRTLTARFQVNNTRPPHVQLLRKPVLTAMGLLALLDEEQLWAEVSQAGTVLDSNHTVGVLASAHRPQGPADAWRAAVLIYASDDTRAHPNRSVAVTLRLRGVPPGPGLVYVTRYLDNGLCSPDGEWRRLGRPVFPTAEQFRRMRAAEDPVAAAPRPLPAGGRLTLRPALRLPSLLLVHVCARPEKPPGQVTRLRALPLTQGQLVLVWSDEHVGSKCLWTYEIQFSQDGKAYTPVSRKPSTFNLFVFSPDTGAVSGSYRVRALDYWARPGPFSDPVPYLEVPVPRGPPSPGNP
Procedure: The capacity of Compounds of the Disclosure to stabilize α-L-iduronidase in neutral pH buffer was assessed using the denaturation prevention assay.
(§1) Briefly, recombinant human α-L-iduronidase protein (obtained in the Institute of Biotechnology and Biomedicine in the UAB, Bellaterra, Spain) was combined at a final concentration of 1 µM with 5X of SYPRO Orange and 30 µM of the corresponding compound in a final reaction volume of 25 µL in 100 mM Hepes 20 mM MgCl2 pH 7 buffer. Reactions were incubated at 37° C. and SYPRO Orange fluorescence intensity was monitored at the indicated time points using Glomax® Discover Microplate Reader from Promega (Madison, WI, USA).
The compound referred to as Compound A throughout this specification is the compound of Example 8 described above. […] (T=37° C.).

[2] = target: T2, Recombinant human α-L-iduronidase protein (Homo sapiens, UniProt P35475); experiment: Differential scanning fluorimetry (DSF) thermal stabilization; type: binding; settings: ΔTm class;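 note: Classes count stabilization of α-L-iduronidase despite the GALC label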
T2 construct: purchased R&D
T2 sequence (P35475 28-653): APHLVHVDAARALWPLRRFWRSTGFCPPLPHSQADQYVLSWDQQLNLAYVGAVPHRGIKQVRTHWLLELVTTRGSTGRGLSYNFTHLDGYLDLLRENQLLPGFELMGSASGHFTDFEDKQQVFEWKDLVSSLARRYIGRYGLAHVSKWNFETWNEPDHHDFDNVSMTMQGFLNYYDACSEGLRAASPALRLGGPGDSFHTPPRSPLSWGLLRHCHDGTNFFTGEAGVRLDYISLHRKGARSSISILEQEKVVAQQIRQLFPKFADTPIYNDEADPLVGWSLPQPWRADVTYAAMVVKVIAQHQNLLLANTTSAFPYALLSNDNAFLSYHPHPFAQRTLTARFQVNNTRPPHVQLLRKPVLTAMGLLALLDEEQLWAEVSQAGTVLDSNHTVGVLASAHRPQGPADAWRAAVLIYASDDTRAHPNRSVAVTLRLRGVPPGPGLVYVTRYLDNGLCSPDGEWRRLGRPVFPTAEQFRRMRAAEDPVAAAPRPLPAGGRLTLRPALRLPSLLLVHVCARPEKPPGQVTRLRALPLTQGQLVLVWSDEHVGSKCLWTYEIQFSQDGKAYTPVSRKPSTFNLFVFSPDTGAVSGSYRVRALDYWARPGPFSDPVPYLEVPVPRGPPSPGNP
Outline: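 Purified recombinant human α-L-iduronidase (final 0.75 µM) in 100 mM Hepes, 20 mM MgCl2, pH 7 with SYPRO Orange was heated with compounds (final 1% DMSO). Thermal denaturation was followed by probe fluorescence during a temperature ramp, and stabilization expressed as ΔTm, binned into four categories (A–D).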

[3] = target: T3, ALDURAZYME (laronidase, IDUA) (Homo sapiens, UniProt P35475); experiment: Denaturation prevention assay with ALDURAZYME; type: biochemical; settings: 30 µM compound, pH 7, 37° C.
T3 construct: purchased ALDURAZYME®
T3 sequence (P35475 26-653 limits assumed): T1 sequence (P35475 26-653)
Procedure: as §1
Compounds of Examples 8, 39, 40, 54, and 72 were also tested as described above, except that ALDURAZYME® was used instead of the recombinant human α-L-iduronidase protein (obtained in the Institute of Biotechnology and Biomedicine in the UAB, Bellaterra, Spain).

[4] = commercially available Examples 8-37

prevention of IDUA denaturation [3] | SMILES | DSF Activity range ([2]; synthetized Examples 38-94) | DSF Activity range [2, 4] | also measured
– | O=C[C@H](O)[C@@H](O)[C@H](O)[C@@H](O)C(=O)O [L-iduronic acid, reference compound] | – | – | prevention of pH-induced IDUA denaturation [1]: minimal effect
prevent IDUA denaturation | Cc1csc2c(=O)[nH]c(CN(C)CC(=O)N(C)c3ccc(Cl)c(Cl)c3)nc12 [Example 40, 2-(N-((3,4-dihydro-7-methyl-4-oxothieno[3,2-d]pyrimidin-2-yl)methyl)-N-methylamino)-N-(3,4-dichlorophenyl)-N-methylacetamide] | B (ΔTm GALC between 0.5 and 1 is shown as B) | – | –
prevent IDUA denaturation | CN(CC(=O)N1CCc2ccccc21)Cc1nc2cc(F)ccc2c(=O)[nH]1 [Example 72, 7-fluoro-2-(((2-(indolin-1-yl)-2-oxoethyl)(methyl)amino)methyl)quinazolin-4(3H)-one] | B (ΔTm GALC between 0.5 and 1 is shown as B) | – | –
prevent IDUA denaturation | CCCN(CC(=O)N(C)c1ccccc1Cl)Cc1nc2cc(C)sc2c(=O)[nH]1 [Example 54] | B (ΔTm GALC between 0.5 and 1 is shown as B) | – | –
prevent IDUA denaturation | Cc1csc2c(=O)[nH]c(CN(C)CC(=O)N3CCc4ccccc43)nc12 [Example 39] | B (ΔTm GALC between 0.5 and 1 is shown as B) | – | –
– | CCCN(CC(=O)Nc1ccc(F)cc1F)Cc1nc2ccsc2c(=O)[nH]1 [Example 11, N-(2,4-difluorophenyl)-2-(((4-oxo-3,4-dihydrothieno[3,2-d]pyrimidin-2-yl)methyl)(propyl)amino)acetamide] | – | B (ΔTm GALC between 0.5 and 1 is shown as B) | –
– | CCN(C(=O)CN(C)Cc1nc2ccccc2c(=O)[nH]1)c1cccc2ccccc12 [Example 28, N-ethyl-2-(methyl((4-oxo-3,4-dihydroquinazolin-2-yl)methyl)amino)-N-(naphthalen-1-yl)acetamide] | – | B (ΔTm GALC between 0.5 and 1 is shown as B) | –
– | Cc1cc2nc(CN(C)CC(=O)N(C)c3cccc(F)c3)[nH]c(=O)c2s1 [Example 51] | C (ΔTm GALC between 0.1 and 0.5 is shown as C) | – | –
– | CN(CC(=O)N1Cc2ccccc2C1)Cc1nc2c(cnn2C)c(=O)[nH]1 [Example 90] | C (ΔTm GALC between 0.1 and 0.5 is shown as C) | – | –
– | CCN(CC(=O)Nc1cccc2c1N=S=N2)Cc1nc2ccccc2c(=O)[nH]1 [Example 25, N-(benzo[c][1,2,5]thiadiazol-4-yl)-2-(ethyl((4-oxo-3,4-dihydroquinazolin-2-yl)methyl)amino)acetamide] | – | B (ΔTm GALC between 0.5 and 1 is shown as B) | –
– | CCN(CC(=O)N(C)c1ccccc1Cl)Cc1nc2cc(C)sc2c(=O)[nH]1 [Example 46] | B (ΔTm GALC between 0.5 and 1 is shown as B) | – | –
– | COc1ccc(-n2ncc3c(O)nc(CN(C)CC(=O)N(C)c4ccccc4Cl)nc32)cc1 [Example 7, N-(2-chlorophenyl)-2-(((4-hydroxy-1-(4-methoxyphenyl)-1H-pyrazolo[3,4-d]pyrimidin-6-yl)methyl)(methyl)amino)-N-methylacetamide] | – | – | DSF Activity range ([2]; synthetized Examples 1-7): C (ΔTm GALC between 0.1 and 0.5 is shown as C)

SMILES | prevention of IDUA denaturation [3] | DSF Activity range ([2]; synthetized Examples 38-94) | DSF Activity range [2, 4] | also measured
CCN(CC(=O)Nc1c(Cl)cccc1Cl)Cc1nc2ccsc2c(=O)[nH]1 [Example 8, N-(2,6-dichlorophenyl)-2-(ethyl((4-oxo-3,4-dihydrothieno[3,2-d]pyrimidin-2-yl)methyl)amino)acetamide] | prevent IDUA denaturation | – | A (ΔTm GALC > 1 is shown as A) | –
